From PubChem BioAssay AID248 (DTP/NCI, 2004) come the findings set out here.

For this assay, the system named is L1210 leukemia ip in BDF1 mice, survival T/C. The experiment in a line: NCI In Vivo Anticancer Drug Screen. Data for tumor model L1210 Leukemia (intraperitoneal) in B6D2F1 (BDF1) mice. The following applies: endpoint: mean survival time, higher = longer survival. In short, it runs like this:
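Tumor was transplanted into mice, which were then dosed with test compound or vehicle alone. Survival was recorded for each group, and the treated figure was expressed relative to the control figure.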

The mark [1] stands for this setting: dose: 400.0 mg/kg/injection, schedule: Q01DX001 (ip), vehicle: Klucel (hydroxypropylcellulose) (HPC).
Where [2] appears, read: dose: 100.0 mg/kg/injection, schedule: Q04DX003 (ip), vehicle: Klucel (hydroxypropylcellulose) (HPC).
Setting [3] is: dose: 200.0 mg/kg/injection, schedule: Q04DX003 (ip), vehicle: Klucel (hydroxypropylcellulose) (HPC).
[4] abbreviates: dose: 400.0 mg/kg/injection, schedule: Q04DX003 (ip), vehicle: Klucel (hydroxypropylcellulose) (HPC).
[5] abbreviates: dose: 50.0 mg/kg/injection, schedule: Q01DX001 (ip), vehicle: saline.
The mark [6] stands for this setting: dose: 100.0 mg/kg/injection, schedule: Q01DX001 (ip), vehicle: saline.
The mark [7] stands for this setting: dose: 200.0 mg/kg/injection, schedule: Q01DX001 (ip), vehicle: saline.
Where [8] appears, read: dose: 400.0 mg/kg/injection, schedule: Q01DX001 (ip), vehicle: saline.
Where [9] appears, read: dose: 100.0 mg/kg/injection, schedule: Q04DX002 (ip), vehicle: saline with Tween-80.
Where [10] appears, read: dose: 200.0 mg/kg/injection, schedule: Q04DX002 (ip), vehicle: saline with Tween-80.
Where [11] appears, read: dose: 400.0 mg/kg/injection, schedule: Q04DX002 (ip), vehicle: saline with Tween-80.

Toxic doses and inconclusive results are not listed.

As to `CC(NCCO)C(O)c1ccccc1` (stereo not given), the T/C (dose: 100.0 mg/kg/injection, schedule: Q01DX009 (ip), vehicle: saline) was 94 % of control; the T/C (dose: 100.0 mg/kg/injection, schedule: Q04DX003 (ip), vehicle: saline) is 95 % of control; the T/C (dose: 200.0 mg/kg/injection, schedule: Q01DX009 (ip), vehicle: saline) is 94 % of control; the T/C (dose: 200.0 mg/kg/injection, schedule: Q04DX003 (ip), vehicle: saline) is 104 % of control; the T/C (dose: 400.0 mg/kg/injection, schedule: Q01DX009 (ip), vehicle: saline) is 103 % of control; the T/C (dose: 400.0 mg/kg/injection, schedule: Q04DX003 (ip), vehicle: saline) was 97 % of control.
For `Cc1ccc(Br)c2c1CCC2=O`, the T/C is 93 % of control (dose: 100.0 mg/kg/injection, schedule: Q01DX001 (ip), vehicle: Klucel (hydroxypropylcellulose) (HPC)); 100 % of control (dose: 200.0 mg/kg/injection, schedule: Q01DX001 (ip), vehicle: Klucel (hydroxypropylcellulose) (HPC)); 93 % of control under setting [1].
For `CCN(CC)c1cc(Cl)c(C=O)cc1Br`, the T/C was 98 % of control (dose: 100.0 mg/kg/injection, schedule: Q01DX009 (ip), vehicle: Klucel (hydroxypropylcellulose) (HPC)); 105 % of control under setting [2]; 100 % of control (dose: 200.0 mg/kg/injection, schedule: Q01DX009 (ip), vehicle: Klucel (hydroxypropylcellulose) (HPC)); 98 % of control under setting [3]; 100 % of control (dose: 400.0 mg/kg/injection, schedule: Q01DX009 (ip), vehicle: Klucel (hydroxypropylcellulose) (HPC)); 104 % of control under setting [4].
Turning to `CCCCCCCCCCCCC/C=N/Nc1nnc(N/N=C/CCCCCCCCCCCCC)c2ccccc12`, the T/C is, setting by setting: under setting [5], 106 % of control; under setting [6], 106 % of control; under setting [7], 109 % of control; under setting [8], 118 % of control.
Take `Cc1ccc(S(=O)(=O)NC(CC(C)C)C(=O)O)cc1` (stereo not given): the T/C is 101 % of control (dose: 100.0 mg/kg/injection, schedule: Q01DX001 (ip), vehicle: other); 96 % of control (dose: 200.0 mg/kg/injection, schedule: Q01DX001 (ip), vehicle: other); 98 % of control (dose: 400.0 mg/kg/injection, schedule: Q01DX001 (ip), vehicle: other).
`Cc1ccc([NH-])cc1.Cc1ccc([NH-])cc1.[Cl][Pt+2][Cl]`: the T/C by setting is: (dose: 6.25 mg/kg/injection, schedule: Q01DX009 (ip), vehicle: saline with Tween-80) 101 % of control; (dose: 12.5 mg/kg/injection, schedule: Q01DX009 (ip), vehicle: saline with Tween-80) 95 % of control.
Regarding `N#CCCN(CCCN1CCOCC1)C(=S)Nc1ccc(Cl)cc1`, the T/C was 94 % of control under setting [9], 90 % of control under setting [10] and 101 % of control under setting [11].
Regarding `O=c1[nH]c2cc3ccccc3cc2c2ccccc12`, the T/C by setting is: under setting [6], 109 % of control; under setting [7], 95 % of control; under setting [8], 100 % of control.
The matching figures for `CCC(C)(C1CCC(O)CC1)C1CCC(O)CC1` (stereo not given): 94 % of control, 96 % of control and 98 % of control.
On to `CCOC(=O)/C(C#N)=C\c1cccc2ccccc12`, for which the T/C under setting [6] is 98 % of control; the T/C (dose: 100.0 mg/kg/injection, schedule: Q04DX003 (ip), vehicle: other) was 92 % of control; the T/C under setting [7] was 103 % of control; the T/C (dose: 200.0 mg/kg/injection, schedule: Q04DX003 (ip), vehicle: other) is 92 % of control; the T/C under setting [8] is 100 % of control; the T/C (dose: 400.0 mg/kg/injection, schedule: Q04DX003 (ip), vehicle: other) was 93 % of control.
Regarding `COc1cc(C(=O)O)c(C(=O)O)cc1OC`, the T/C by setting is: (dose: 12.5 mg/kg/injection, schedule: Q01DX001 (ip), vehicle: Klucel (hydroxypropylcellulose) (HPC)) 104 % of control; (dose: 12.5 mg/kg/injection, schedule: Q01DX009 (ip), vehicle: saline) 101 % of control; (dose: 25.0 mg/kg/injection, schedule: Q01DX001 (ip), vehicle: Klucel (hydroxypropylcellulose) (HPC)) 108 % of control; (dose: 25.0 mg/kg/injection, schedule: Q01DX009 (ip), vehicle: saline) 103 % of control; (dose: 50.0 mg/kg/injection, schedule: Q01DX001 (ip), vehicle: Klucel (hydroxypropylcellulose) (HPC)) 101 % of control; (dose: 50.0 mg/kg/injection, schedule: Q01DX009 (ip), vehicle: saline) 104 % of control. Moreover, the T/C (dose: 75.0 mg/kg/injection, schedule: Q01DX009 (ip), vehicle: Klucel (hydroxypropylcellulose) (HPC)) is 97 % of control; the T/C (dose: 115.0 mg/kg/injection, schedule: Q01DX009 (ip), vehicle: Klucel (hydroxypropylcellulose) (HPC)) was 100 % of control; the T/C (dose: 170.0 mg/kg/injection, schedule: Q01DX009 (ip), vehicle: Klucel (hydroxypropylcellulose) (HPC)) was 100 % of control; the T/C under setting [1] is 88 % of control.
Regarding `CCCOC(=O)Nc1cccc2ccccc12`, the T/C by setting is: (dose: 12.5 mg/kg/injection, schedule: Q04DX002 (ip), vehicle: Klucel (hydroxypropylcellulose) (HPC)) 101 % of control; (dose: 25.0 mg/kg/injection, schedule: Q04DX002 (ip), vehicle: Klucel (hydroxypropylcellulose) (HPC)) 86 % of control; (dose: 50.0 mg/kg/injection, schedule: Q04DX002 (ip), vehicle: Klucel (hydroxypropylcellulose) (HPC)) 96 % of control; (dose: 100.0 mg/kg/injection, schedule: Q04DX002 (ip), vehicle: Klucel (hydroxypropylcellulose) (HPC)) 101 % of control.
Regarding `Oc1ccc2ccccc2c1C=Nc1ccc(Br)cc1`, the T/C is 91 % of control under setting [2], 90 % of control under setting [3] and 91 % of control under setting [4].
For `CN=C(N)Nc1ccc(NC(=O)Nc2ccc(NC(=O)Nc3ccc(NC(N)=NC)cc3)cc2)cc1`, the T/C was 100 % of control (dose: 3.75 mg/kg/injection, schedule: Q01DX Z (ip), vehicle: carboxymethylcellulose (CMC)); 110 % of control (dose: 7.5 mg/kg/injection, schedule: Q01DX Z (ip), vehicle: carboxymethylcellulose (CMC)); 170 % of control (dose: 30.0 mg/kg/injection, schedule: Q01DX Z (ip), vehicle: carboxymethylcellulose (CMC)); 100 % of control (dose: 31.0 mg/kg/injection, schedule: Q01DX Z (oral), vehicle: carboxymethylcellulose (CMC)); 110 % of control (dose: 62.0 mg/kg/injection, schedule: Q01DX Z (oral), vehicle: carboxymethylcellulose (CMC)); 95 % of control (dose: 125.0 mg/kg/injection, schedule: Q01DX Z (oral), vehicle: carboxymethylcellulose (CMC)). The T/C (dose: 250.0 mg/kg/injection, schedule: Q01DX Z (oral), vehicle: carboxymethylcellulose (CMC)) is 101 % of control.
`CC1(C)Oc2[nH]c(=O)n(-c3ccccc3)c(=O)c2C1c1ccc(Cl)cc1` (stereo not given): the T/C (dose: 12.5 mg/kg/injection, schedule: Q01DX001 (ip), vehicle: saline) is 94 % of control; the T/C (dose: 12.5 mg/kg/injection, schedule: Q04DX003 (ip), vehicle: acetone) is 103 % of control; the T/C (dose: 25.0 mg/kg/injection, schedule: Q01DX001 (ip), vehicle: saline) was 97 % of control; the T/C (dose: 25.0 mg/kg/injection, schedule: Q04DX003 (ip), vehicle: acetone) is 86 % of control; the T/C (dose: 35.0 mg/kg/injection, schedule: Q01DX009 (ip), vehicle: saline) is 94 % of control; the T/C under setting [5] is 92 % of control. Moreover, the T/C reads like this: (dose: 55.0 mg/kg/injection, schedule: Q01DX009 (ip), vehicle: saline) 96 % of control; (dose: 80.0 mg/kg/injection, schedule: Q01DX009 (ip), vehicle: saline) 106 % of control.
For `CC(C)(C)c1ccc(/C=[N+](\[O-])C(C)(C)C)c(C(C)(C)C)c1O`, the T/C runs as follows: (dose: 50.0 mg/kg/injection, schedule: Q04DX002 (ip), vehicle: saline with Tween-80) 102 % of control; under setting [9], 98 % of control; under setting [10], 102 % of control; under setting [11], 95 % of control.
